In patent US11401255B2, “Small molecule activators of Parkin enzyme function” (Mayo Foundation for Medical Education and Research, priority 2016, dated 2022):
Where a name gives a salt, the structure may show the parent alone. Read-outs that look alike come from different tables or passages of the source.

How the values were obtained:
[1] = biological target: Parkin (Homo sapiens (Human), UniProt O60260); assay: Primary HCI assay of EGFP-Parkin translocation to mitochondria; assay type: cell-based; conditions: primary assay screen, Parkin translocation to mitochondria
Method: GFP-Parkin is localized throughout the cell in unstressed cells but translocates to mitochondria when the mitochondrial membrane potential is compromised and Parkin is activated. After automated image acquisition of fixed cells, regions of interest of each cell were defined with the analysis software. […] To quantify the relocalization of GFP-Parkin to mitochondria, the ratio of the GFP intensity in the cytoplasm and the nucleus was calculated. Under non-stressed condition, this ratio is about 1. FIG. 1B is a bar graph showing the results of the assay with a Z factor (Z′) of 0.5-0.8, which indicates its robustness and usefulness as a screening assay. Validation of the assay has been performed by using PINK1 siRNA.
FIGS. 2A-2C show a primary HCI assay with CCCP titration. FIG. 2A is a graphic description of the primary HCI assay of EGFP-Parkin translocation. HeLa cells stably expressing GFP-Parkin were seeded with 1350 cells per well in 384-well plates (25 μL per well). Cells were allowed to attach overnight before drug was added 2× concentrated in a volume of 25 μL in triplicates. After 2 h, 50 μL of a 2× low-dose CCCP (yielding a final concentration of 3.5 μM CCCP) was added to all wells that contained test compounds and for the negative control. For positive control wells, CCCP was added in a final concentration of 10 μM. After 2 h incubation with CCCP, cells were fixed and labeled with Hoechst for at least 1 h before cells were imaged. […] Values were being normalized to negative and positive control values and plotted as % activity. Z′ was calculated for quality control. Positive controls were indicated in green, negative control wells in red. Drugs that lead to more than 50% activity are considered positive (blue).
Functional testing of compounds was performed using an established primary HCI assay for Parkin translocation, which correlates well with enzymatic activation (Fiesel et al., J. Cell Science (2014) 127:3488-3504; Fiesel et al., Human Mutation (2015) 36:774-786). In brief, 1400 HeLa cells stably expressing EGFP-Parkin were seeded into optical 384-well plates (Greiner BioOne) in 25 μL media and allowed to adhere for 40 h. Compounds 1, 2, 3, 4, and 31 were added to the plate as 2× concentrated stocks. Control wells were treated with equal volume of DMSO in media. After 2 h, unless otherwise stated, CCCP was added as 2× concentrated stock with a final assay concentration of 10 μM for PC wells and 3.5 μM for test and NC wells. This low dose of CCCP was experimentally determined by a dose response curve of CCCP to result in no Parkin translocation (FIG. 13). After another 2 h, cells were fixed in 4% paraformaldehyde for 10 min and stained with Hoechst 33342 (1:5000, Invitrogen) before plates were imaged and analyzed.
Image acquisition was performed on a BD Pathway 855 with the Attovision V1.6 software (BD Biosciences). Wells were imaged with a 20× objective using a 2×2 montage with laser autofocus. EGFP exposure time was 0.0175 sec, Hoechst 0.0015 sec. Raw images were not processed and directly analyzed using a build-in ‘RING—2 output’ algorithm. Values were exported and normalized using JMP 11 software and transferred to GraphPad Prism 7 for quality control, graphing and curve fitting for DRCs with a variable slope using four parameters. […] Values were normalized to both PC and NC values from 24 wells each per plate and the Z′ score was calculated. Plates with Z′<0.5 were repeated.

[2] = biological target: FLAG-Parkin C431S (Homo sapiens (Human), UniProt O60260, C431S); assay: Ub-charging of FLAG-Parkin C431S (western blot); assay type: cell-based; conditions: 1 μM, 2 h before 3.5 μM CCCP (FIG. 21)
Method: Another measure of Parkin activation is Ub charging of Parkin. Parkin receives Ub from an E2 enzyme to transfer it to a substrate protein. The Ub is bound by Parkin C431 in an unstable thioester bond. A serine substitution of this amino acid (C431S) leads to a stable oxyester bond. The bound Ub can then be visualized as a band shift in Western blot experiments. HeLa 3×FLAG-Parkin C431S cells were seeded in 12-well plates and allowed to attach overnight. Cells were treated with 5 μM (top panels) or 1 μM (bottom panels) of Compounds 1, 2, 3, 4, and 31 2 h before adding CCCP for another 2 h. 10 μM CCCP was added to positive control (PC) wells whereas all other samples received a low dose concentration of 3.5 μM. Cells were harvested in boiling hot SDS lysis buffer and protein concentration was determined by BCA. Samples were split and left either untreated or were treated with NaOH as indicated. Samples were run on an 8-16% Tris-Glycine gel, blotted onto membranes and probed with antibodies against Flag and pS65-Ub. GAPDH served as a loading control. Band shift indicates Parkin binding to Ubiquitin, which is cleavable with NaOH.
Cells were harvested in RIPA buffer or NP-40 lysis buffer containing protease and phosphatase inhibitors (Complete and PhosStop, Roche Applied Science) with the exception of Parkin Ub charging experiments where preheated (95° C.) SDS lysis buffer (50 mM Tris pH 7.6, 150 mM NaCl, 1% SDS) was used. Concentration of cell lysates was determined with bicinchoninic acid (Pierce Biotechnology). For Parkin Ub charging experiments, aliquots of lysates were treated with […] for 1 h at 37° C. pH was neutralized with equinormal HCl.
Protein was subjected to SDS-PAGE using 4-20% or 8-16% Tris-Glycine gels (Invitrogen) and transferred onto polyvinylidene fluoride (PVDF) (Millipore). Membranes were incubated with primary antibodies overnight at 4° C. followed by HRP-conjugated secondary antibodies (1:10,000; Jackson ImmunoResearch Laboratories). Primary antibodies used: beta III tubulin (rabbit, 1:1000, CST, #5568, CST), FLAG (mouse, 1:250,000, Sigma, F3165), GAPDH (mouse, 1:100,000-500,000, Meridian Life science, H86504M), GST (1:10,000, Sigma, G7781), MFN1 (mouse, 1:5,000, Abcam, ab57602), MFN2 (mouse, 1:5,000, Abcam, ab56889), Parkin (mouse, 1:2,000, Cell Signaling, #4211), pSer65-Ub (rabbit, 1:15,000, in-house (Fiesel et al., EMBO Reports (2015) 16:1114-30; Fiesel et al., (2015) Autophagy 11:2125-2126)), TOM70 (rabbit, 1:5,000, Proteintech, 14528-1-AP), UBE2L3 (rabbit, 1:10,000, ProteinTech, 14415-1-AP), VDAC1 (mouse, 1:5,000, Abcam, ab14734), vinculin (mouse, 1:100,000, Sigma, V9131).
HeLa 3×FLAG-Parkin C431S cells were seeded in 6-well plates and allowed to attach overnight. Cells were treated with […] of compounds 5, 21-28, 32, 33, or 43-46 2 h before adding CCCP for another 2 h. 10 VM CCCP was added to positive control (PC) wells, 3.5 μM CCCP to compound (+) and negative control (NC) wells. […] Cells were harvested in boiling hot SDS lysis buffer and protein concentration was determined by BCA. Samples were split and left either untreated or were treated with NaOH as indicated. Samples were run on an 8-16% Tris-Glycine gel, blotted onto membranes and probed with antibodies against Flag. Vinculin served as a loading control. Band shift indicates Parkin binding to Ubiquitin, which is cleavable with NaOH (FIG. 21).

[3] = Caco-2 A-B permeability assay; assay type: in vitro ADME; conditions: human, Caco-2, pH 7.4, A-B
Method: (§1) Caco-2 cells were cultivated in 75 cm^2 flasks to 80-90% of confluence according to the ATCC and Millipore recommendations (Millipore protocol note PC1060EN00P) in a humidified atmosphere at 37° C. and 5% CO2. Cells were detached with Trypsin/EDTA solution and re-suspended in the cell culture medium to a final concentration of 2×10^5 cells/mL. 500 μL of the cell suspension was added to each well of an HTS 24-multiwell insert system and 35 mL of prewarmed complete medium was added to the feeder tray. Caco-2 cells were incubated in the multiwell insert system for 10 days before the transport experiments. The medium in the filter plate and feeder tray was changed every other day. After 10 days of cell growth, the integrity of the monolayer was verified by measuring the transepithelial electrical resistance (TEER) for every well using the Millicell-ERS system ohm meter. […] The 24-well insert plate was removed from its feeder plate and placed in a new sterile 24-well transport analysis plate. The medium was aspirated and inserts washed with PBS.
(§2) To determine the rate of drug transport in apical (A) to basolateral (B) direction, 300 μL of the test compound solution in buffer (HBSS, 5.6 mM glucose, 10 mM HEPES, pH=7.4) was added into the filter wells and 1000 μL of the same buffer was added to wells in the transport analysis plate. The plates were incubated for 90 min. at 37° C. with shaking at 50 rpm. 75 μL aliquots were taken from the apical and basolateral compartment for LC-MS/MS analysis. All samples for LC-MS/MS analysis were extracted by acetonitrile (×2 volume) followed by protein sedimentation by centrifuging at 10000 rpm for 10 minutes. Supernatants were analyzed using the HPLC system coupled with a tandem mass spectrometer.
(§3) The apparent permeability (Papp) was calculated for the Caco-2 permeability assay using the following equation: Papp=(VA/((Area)×(Time))×([drug]acc/[drug]initial,d), where: […]

[4] = test system: Caco-2 cells; assay: Caco-2 A-B permeability assay; assay type: in vitro ADME; conditions: A-B, 90 min, pH=7.4; hydrochloride
Method: as §1, §2, §3

[5] = biological target: CYP 2D6 (Homo sapiens (Human), UniProt P10635); assay: P450-Glo CYP450 inhibition, CYP 2D6
Method: CYP450 inhibition profiling provides valuable information regarding any possible drug-drug interactions for a test compound.
All experiments were performed using P450-Glo™ Assay Systems (Promega) in accordance with the manufacturer's protocols. The P450-Glo™ Assays provide a luminescent readout-based method for measuring cytochrome P450 activity. A conventional cytochrome P450 reaction was performed by incubating the cytochrome P450 and a luminogenic cytochrome P450 substrate. The substrates in the P450-Glo™ assays are derivatives of beetle luciferin. The derivatives themselves are not substrates for luciferase but are converted by cytochrome P450s to luciferin, which in turn reacts with luciferase to produce light. The amount of light produced was directly proportional to cytochrome P450 activity. All test points were performed in quadruplicates. Control membranes (without CYPs) represented the Negative control (baseline).
The following reference compounds were used to assess CYP inhibition: […]

Sequence of CYP 2D6 (P10635 whole entry): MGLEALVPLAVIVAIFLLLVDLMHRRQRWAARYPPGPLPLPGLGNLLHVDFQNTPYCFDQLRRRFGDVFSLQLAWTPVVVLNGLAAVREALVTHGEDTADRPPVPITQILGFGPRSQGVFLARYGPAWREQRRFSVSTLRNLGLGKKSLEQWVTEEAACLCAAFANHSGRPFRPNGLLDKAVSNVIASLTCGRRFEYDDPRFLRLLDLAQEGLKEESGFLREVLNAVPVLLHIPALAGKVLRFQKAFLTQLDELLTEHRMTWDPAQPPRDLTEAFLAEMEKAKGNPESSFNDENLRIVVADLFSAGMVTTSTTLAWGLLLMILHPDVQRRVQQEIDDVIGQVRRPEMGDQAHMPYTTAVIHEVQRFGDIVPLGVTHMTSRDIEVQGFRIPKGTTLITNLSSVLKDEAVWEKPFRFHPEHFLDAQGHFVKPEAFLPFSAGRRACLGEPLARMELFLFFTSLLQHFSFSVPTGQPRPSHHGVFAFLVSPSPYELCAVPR

Structure (SMILES) | EC50 [1] [nM] | Ub-charging of FLAG-Parkin C431S (WB) [2] | other results
c1ccc(CN2CCCN(c3ncnc4c3CCCCC4)CC2)cc1 [Compound 32] | 36 | enhanced Ub-charging | 
CC(C)NCC(O)COc1cccc2ccccc12 (stereo not shown) [Propranolol, propranolol hydrochloride, reference compound] |  |  | Papp at 90 min ([3]; read-out: Permeability (individual replicates 1, 2)): 23 ×10⁻⁶ cm/s; Papp at 90 min ([3]; read-out: Permeability Mean): 21.8 ×10⁻⁶ cm/s; Permeability (individual replicates 1, 2) [4]: 20.6 10^−6 cm/s
C=C[C@H]1C[N@@]2CC[C@H]1C[C@@H]2[C@@H](O)c1ccnc2ccc(OC)cc12 [quinidine, reference compound] |  |  | inhibition at 1 µM [5]: 88.4%

Continued, in another order:

EC50 [1] [nM] | Ub-charging of FLAG-Parkin C431S (WB) [2] | Structure (SMILES) | other results
63 | enhanced Ub-charging | Cc1nc(NC(=O)Cn2cnc3c2CCCC3)ccc1-c1ccccc1 [Compound 5] | 
111 | enhanced Ub-charging | c1ccc(CN2CCCN(c3ncnc4c3CCCC4)CC2)cc1 [Compound 33] | 
